Reference: patent US7186703B2, “Derivatives of branched-chain lipophilic molecules and uses thereof” (D-Pharm Ltd., priority 2000, dated 2007)
Values joined by “and” are separate entries in the source; they are usually repeats but may differ in a detail not shown here. Equal entries are not always repeated. Where two headings read alike, the source gives them in different places.

Key:
[1] = tested on: blood brain barrier (BBB); assay: BBB permeability to EB-albumin and Fluorescein in normal rat brains; format: in vivo; details: compounds at EC50 (Mannitol 25%); for % EB/g brain: control 0.04 ± 0.01; for Brain fluorescein uptake (% of serum F-Na level): control 0.3 ± 0.08; for Ratio F-Na/EB (mean of individual ratios): control 9.5 ± 1.6
In short: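 In normal rats, Evans blue–albumin (70 kD) and fluorescein sodium (376 D) were infused into the external carotid artery over 30 s, with test compounds at their EC50 concentrations or vehicle. EB reported as percent of total per gram brain; fluorescein as percent of serum level.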

[2] = tested on: Normal bone marrow (BM) cells; assay: MTT cytotoxicity, normal bone marrow cells; format: cell-based, mouse; details: five days, read-out: EC50 (50% reduction in cell viability)
Method: (§1) The cytotoxic activity of various phospho-derivatives of branched-chain fatty acids (DP-BFAs) was assayed in vitro in cell cultures that include normal and malignant cell types. The following cell systems were used: • Primary fibroblasts (human) • Normal bone marrow (BM) cells (mouse) • Primary bronchial epithelial cells (human, from Clonetics, cat. no. CC-2541) • Caco-2—colon cancer cell line (human, ATTC, HTB-37) • C6 glioma cell line (rat, ATCC, CRL-2199) • Neuro2a—neuroblastoma cell line (mouse, ATCC, CCL-131) • SKBR-3—breast cancer cell line (human, ATTC, HTB-30) • HL60—myeloid leukemia cell line (human, ATCC, CCL-240) • U937—myeloid leukemia cell line (human)
(§2) Cells were seeded in a microtiter plate in MEM containing 2 mM L-glutamine, 100 units/ml penicillin, 100 ug/ml streptomycin and 10% FCS at 37° C. The cultured cells were incubated, during their linear growth phase in the absence (control group) or presence of various DP-BFAs as indicated. The final concentrations of the tested DP-BFAs ranged from 1.5 to 200 microMolars. At the end of the incubation period, which was five days for the bone marrow cells and three days for all the other cell lines, the cytotoxic effect of the added P-BFA on the cells was estimated by using the colorimetric MTT assay. The MTT assay (Mosmann (1983) J. Immunol Methods 65: 55–63) measures mitochondrial reductase activity and serves for quantitative assessment of cellular viability. Drug concentration that causes 50% reduction in cell viability in comparison to the control group, is defined as EC50. The EC50 values of the tested DP-BFA compounds were calculated from dose response curves established for each of the different assayed cell lines.
(§3) Each EC50 value is an average of EC50 values derived from 1–5 independent experiments.

[3] = tested on: Primary fibroblasts; assay: MTT cytotoxicity, normal primary fibroblasts; format: cell-based, human; details: three days, read-out: EC50 (50% reduction in cell viability)
Method: as §1, §2, §3

[4] = tested on: Caco-2 colon cancer cell line; assay: MTT cytotoxicity, Caco-2; format: cell-based, human; details: Caco-2, three days, read-out: EC50 (50% reduction in cell viability)
Method: as §1, §2, §3

[5] = tested on: blood brain barrier (BBB); assay: BBB permeabilization in rats, Evans blue extravasation into brain; format: in vivo, Sprague-Dawley rats; details: for μg EB/g brain (at EC50): at EC50 (Mannitol at 25%); for MEC (minimal effective concentration): concentration giving 3 μg EB/g brain; for MEC: Table 8, sodium salt, in µM
[6] = tested on: HL60 myeloid leukemia cell line; assay: MTT cytotoxicity, HL60; format: cell-based, human; details: HL60, three days, read-out: EC50 (50% reduction in cell viability)
Method: as §1, §2, §3

[7] = Table 6, rat brains, Evans blue extravasation, read-out: EQ50 (the source's name)
[8] = Mus musculus, Bone marrow cell, 120 h

Question: `CCCCCCCCCCCCC(CCC)C(=O)OCCOCCOP(=O)([O-])[O-].[Na+].[Na+]` (centres unmarked) [3,12-DEG-PO4Na2, 2-[2′-(2″-Propyltetradecanoyloxy)-ethoxy]ethyl Disodium Phosphate] was tested. Which “% EB/g brain” value [1] did it give?
Answer: 1.4 ± 0.2%

Question: And the “Brain fluorescein uptake (% of serum F-Na level)” value [1]?
Answer: 9.0 ± 1.4 % of the F—Na level in the ser

Question: What about the “Ratio F-Na/EB (mean of individual ratios)” value (shortened to “Ratio F-Na/EB”) [1] of the same compound?
Answer: 9.0 ± 1.2

Question: And the EC50 [2]?
Answer: 62 µM

Question: And the EC50 [3]?
Answer: 65 µM

Question: What about the EC50 [4] of the same compound?
Answer: 40 µM

Question: What about the “μg EB/g brain (at EC50)” value ([5]; Table 6) of the same compound?
Answer: 18 μg EB/g brain and 18 ± 3 μg EB/g brain

Question: And the “MEC (minimal effective concentration)” value ([5]; Table 6)?
Answer: 3.3 µM and 3.3 ± 0.5 µM

Question: What about the EC50 [5, 7] of the same compound?
Answer: 20 µM

Question: What does the source list for `CCCCCCCCCCCCC(CCC)C(=O)[O-].[Na+]` (centres unmarked) [3,12-Na, reference compound]?
Answer: % EB/g brain [1]: 1.8 ± 0.2%; Brain fluorescein uptake (% of serum F-Na level) [1]: 6.4 ± 1.1 % of the F—Na level in the ser; Ratio F-Na/EB (mean of individual ratios) [1]: 4.9 and 4.9 ± 0.9; EC50 [4]: 100 µM; permeabilization of the BBB (FIG. 1, in words) ([5]; Evans blue extravasation in rat brain, 3,n-type BFAs): active; MEC (minimal effective concentration) ([5]; Table 5): 6.5 ± 0.7; EC50 ([5]; Table 5, rat brain, intracarotid infusion, read-out: EC50 (Evans Blue extravasation)): 20 ± 3 µM; MEC [5]: 6.5 ± 0.7

Question: Which “% EB/g brain” value [1] does the source give for `CCCCCCCCCCCCC(CCC)C(=O)OCCOCCOP(=O)([O-])OCC[N+](C)(C)C` (centres unmarked) [3,12-DEG-PC, 2-(2′-Propyltetradecanoyloxy)ethoxyethylphosphocholine] here?
Answer: 0.6 ± 0.1%

Question: And the “Brain fluorescein uptake (% of serum F-Na level)” value [1]?
Answer: 2.9 ± 0.5 % of the F—Na level in the ser

Question: And the “Ratio F-Na/EB” value [1]?
Answer: 6.8 ± 0.8

Question: And the EC50 ([6]; Homo sapiens, HL-60, 72 h)?
Answer: 11 µM

Question: What about the EC50 [2, 8] of the same compound?
Answer: 166 µM

Question: What about the EC50 ([3]; Homo sapiens, Fibroblast, 72 h) of the same compound?
Answer: 170 µM

Question: And the EC50 ([4]; Homo sapiens, 72 h)?
Answer: 113 µM

Question: What about the “μg EB/g brain (at EC50)” value ([5]; Table 6) of the same compound?
Answer: 14 ± 2 μg EB/g brain

Question: And the “MEC (minimal effective concentration)” value ([5]; Table 6)?
Answer: 15 ± 2 µM

Question: What about the EC50 [5, 7] of the same compound?
Answer: 70 ± 12 µM

Question: What about the MEC [5] of the same compound?
Answer: 15 ± 2

Question: Which results are given for `CCCCCCCCCCCCC(CCC)C(=O)OCCOP(=O)([O-])OCC[N+](C)(C)C` (centres unmarked) [3,12-MEG-PC, 2-(2′-Propyltetradecanoyloxy)ethylphosphocholine]?
Answer: % EB/g brain [1]: 0.9 ± 0.2%; Brain fluorescein uptake (% of serum F-Na level) [1]: 5.2 ± 0.8 % of the F—Na level in the ser; Ratio F-Na/EB (mean of individual ratios) [1]: 6.9 ± 0.1; EC50 ([6]; Homo sapiens, HL-60, 72 h): 20 µM; EC50 [2, 8]: 95 µM; EC50 ([3]; Homo sapiens, Fibroblast, 72 h): 160 µM; EC50 ([4]; Homo sapiens, 72 h): 75 µM; μg EB/g brain (at EC50) ([5]; Table 6): 15 ± 2 μg EB/g brain; MEC (minimal effective concentration) ([5]; Table 6): 10 ± 1 µM; EC50 [5, 7]: 19.5 ± 1.5 µM; MEC [5]: 10 ± 1

Question: What does the source list for “2-(4′-Hexadecanoyloxy)ethoxyethyl phosphate [3,12-DEG-PO4]”?
Answer: Ratio F-Na/EB (mean of individual ratios) [1]: around 9; MEC [5]: 3.0 ± 0.5

Question: How did the “% EB/g brain” value [1] turn out when `CCCCCCCCCCCCC(CCC)OP(=O)([O-])OCC[N+](C)(C)C` (centres unmarked) [3,12-PC, 4-Hexadecanyl phosphocholine] was run?
Answer: 0.8 ± 0.1%

Question: And the “Brain fluorescein uptake (% of serum F-Na level)” value [1]?
Answer: 3.0 ± 0.5 % of the F—Na level in the ser

Question: What about the “Ratio F-Na/EB” value [1] of the same compound?
Answer: 7.8 ± 1.3

Question: What about the EC50 [6] of the same compound?
Answer: 47 µM

Question: And the EC50 [4]?
Answer: 150 µM

Question: What about the “μg EB/g brain (at EC50)” value ([5]; Table 6) of the same compound?
Answer: 10 ± 1 μg EB/g brain

Question: What about the “MEC (minimal effective concentration)” value ([5]; Table 6) of the same compound?
Answer: 23 ± 4 µM

Question: And the EC50 [5, 7]?
Answer: 76 ± 14 µM

Question: And the MEC [5]?
Answer: 23 ± 4
